System: OT-I cells
Assay: Total OT-I cell numbers in lymphoid tissues and percentage in nasal mucosa at Day 7 (Example 1)
Format: in vivo, C57BL/6 mice
Method: An Ovalbumin-IRM1 conjugate was prepared as follows. IRM1 was suspended in dimethyl sulfoxide (DMSO) to 10 mg/ml. Ovalbumin was suspended in phosphate buffered saline (PBS) to 10 mg/ml and the pH adjusted to >10.0 by the addition of NaOH. 500 μL of the ovalbumin solution (5 mg ovalbumin) was mixed with 100 μL of the IRM1 solution (1 mg IRM1) in a single well of a 12-well tissue culture plate. The plate was placed on ice and a long wavelength UV light source was placed directly over the plate as close to the well containing the IRM1/ovalbumin mixture as possible. The mixture was irradiated for 15 minutes. […]
Chicken Ovalbumin-specific CD8^+ T cells (OT-I, The Jackson Laboratories, Bar Harbor, Me.) were labeled with carboxyfluoroscein succinimidyl ester (CFSE, Molecular Probes, Inc., Eugene, Oreg.), a fluorescent dye that stains cells in a stabile manner, and then adoptively transferred into syngenic C57BL/6 mice (Charles River Laboratories, Wilmington, Mass.). […] Cells were then run on a FACSCaliber (Becton, Dickinson, and Co., San Jose, Calif.) and CD8^+SIINFEKL/K^b tetramer^+ T cells were analyzed for CFSE expression.
Separately, total OT-I cell numbers at Day 7 were counted in nasal associated lymphoid tissue (NALT), cervical lymph node (CLN), and spleen (Spl). […] Additionally, the percentage of OT-I cells in the nasal mucosa at determined at Day 7. […]

For `CCOCc1nc2c(N)nc3ccccc3c2n1CC(C)(C)NC(=O)CCCCCNC(=O)c1ccc(N=[N+]=[N-])cc1O` [IRM1, N-[6-({2-[4-amino-2-(ethoxymethyl)-1H-imidazo[4,5-c]quinolin-1-yl]-1,1-dimethylethyl}amino)-6-oxohexyl]-4-azido-2-hydroxybenzamide], the “total OT-I cell numbers, intranasal IRM1 plus antigen versus antigen alone” value (Ovalbumin-IRM1 conjugate intranasal, FIG. 2) was “greater total OT-I cell numbers at Day 7 than antigen alone” and the “total OT-I cell numbers, intranasal versus intravenous delivery” value (Ovalbumin-IRM1 conjugate, NALT, CLN, spleen, FIG. 2A-2C) was “greater total OT-I cell numbers at Day 7 than intravenous delivery in all lymphoid tissues examined”.

Source: patent publication US20060051374A1, “Compositions and methods for mucosal vaccination” (3M Innovative Properties Company, priority 2004, published 2006)
